In brackets after ≈: the same amount, converted by molar mass. Several values for one entry are separate records, joined by “and”; a condition that tells them apart may be missing. Equal entries are not always repeated. Where two headings read alike, the source gives them in different places.
Assays:
extracellular Mm = assay: MIC90 resazurin microtiter assay against extracellular M. marinum; type: cell-based, Mycobacterium marinum
Mtb = system: Mtb; set-up: method as in data not published; settings: in vitro, phenotypic HTS; ref data not published; cited from earlier work
VERO cells = system: VERO cells; set-up: method as in data not published; settings: cytotoxicity in VERO cells; ref data not published; cited from earlier work
[1] = system: intracellular Mm in murine BMDMs; assay: Anti-mycobacterial efficacy in M. marinum-infected BMDMs (CFU plating); type: cell-based, Mycobacterium marinum; settings: for IC90: Mycobacterium marinum

SMILES	MIC90 (extracellular Mm; Mycobacterium marinum)	MIC90 (extracellular Mm; extracellular Mm, resazurin assay) [µg/mL]	MIC90 (extracellular Mm; extracellular Mm, resazurin assay, read-out: MIC90) [µM]	MIC90 against Mtb (Mtb) [mg/L]	CC50 (VERO cells) [mg/L]	IC90 ([1]; BMDM)	IC99 ([1]; intracellular M. marinum in BMDM, calculated from the macrophage infection assay data)	MIC90 (extracellular Mm; Mycobacterium marinum, extracellular Mm, resazurin assay, read-out: MIC90)	IC99 [1]	IC90 ([1]; intracellular M. marinum in BMDM, calculated from the macrophage infection assay data, read-out: IC90)
COc1ccc2c(ccc3oc([N+](=O)[O-])cc32)c1 [C16, 7-methoxy-2-nitronaphtho[2,1-b]furan]	0.016 µg/mL and 0.07 µM	0.016	0.07	< 8	0.3 (≈ 1.23 µM)	0.013 µg/mL and 60 nM	0.03 µg/ml and 0.11 µM	–	–	–
CO[C@H]1/C=C/O[C@@]2(C)Oc3c(C)c(O)c4c(O)c(c(/C=N/N5CCN(C)CC5)c(O)c4c3C2=O)NC(=O)/C(C)=C\C=C\[C@H](C)[C@H](O)[C@@H](C)[C@@H](O)[C@@H](C)[C@H](OC(C)=O)[C@@H]1C [RIF, rifampicin]	–	–	–	–	–	–	–	0.1 µg/mL and 0.12 µM	1.97 µg/ml and 2.41 µM	0.878 µg/mL and 1.07 µM

Reference: paper PMC8807572, “The zebrafish embryo as an in vivo model for screening nanoparticle-formulated lipophilic anti-tuberculosis compounds” (Disease Models & Mechanisms, 2022)
